Columns and labels:
Assay type in all cases: cell-based, human
melanoma TILs = assay: IFNγ ELISPOT of melanoma TILs incubated with synthetic peptide; settings: for IFNγ production by TILs (ELISPOT response to peptide): 15 HLA-A*02:01-expressing melanoma TILs, peptide 10 μM
Excerpt: To examine whether the detected HLA ligands are recognized by tumor-infiltrating lymphocytes (TILs) and if these TILs can kill cells presenting ED. For this analysis, matched autologous pairs of melanoma TILs and tumor cell lines were used. CCNI-ED peptide and its WT counterpart were synthesized and evaluated for their ability to activate TILs generated from human melanoma tumours.
Melanoma TILs were generated as described before. Briefly, melanoma tumor samples were either cut into 1-3 mm^2 fragments and put in culture in a tissue-treated 24-well plate, in complete TIL media (TIL-CM) consisting of RPMI 1640 (Gibco, 61871), 10% of human AB serum (GEMINI, 100-512), 0.1% of 2-mercaptoethanol (Gibco, 21985023), 1% of HEPES (Corning, 25-060), 1% sodium pyruvate (Invitrogen/Life Technologies, 11360-070), 1% of Glutomax (Gibco, 35050061), 1% PenStrep (ThermoFisher, 15070063) plus 6000 U/mL of human IL-2 or put in culture after the tumor samples were enzymatically digested by collagenase for 1 h at 37° C. followed by centrifugation using a multi-layer Ficoll gradient (100% and 75%, Ficoll-Paque PLUS, GE, 17-1440-02) where the 100% layer was collected for TILs. Every 3 days, half of the medium was replaced with fresh medium and the TIL culture was split to keep the cells at a density of 1×10^6/mL. TILs were expanded between 2 to 5 weeks, depending on the TIL lines. To increase the number of TILs available for experiments, the lines were further expanded using the rapid expansion protocol (REP). In brief, 1.5×10^5 primary TILs generated above were cultured with 27×10^6 feeder cells together with 0.6 mg soluble anti-CD3 monoclonal antibody (OKT3 clone, Muronomab—Abbott Labs). The feeder cells are peripheral blood mononuclear (PBMC) cells mixed from at least 5 healthy donors and irradiated at 5,000 cGy for 20 minutes prior to culture in order to prevent their proliferation during the REP. 6,000 U/mL IL-2 was added at the second day and half of the medium was recovered and replaced with fresh medium containing 50% of TIL-CM and 50% of AIM-V medium (Invitrogen, 12055-083) every 3 days to keep TIL density between 0.5-2×10^6/mL. The cultured TILs were harvested at day 14 for functional analysis or frozen in human serum with 10% DMSO (Thermo Fisher, 67-68-5). Autologous tumor cell lines were also established from the enzymatically digested tumours followed by the multi-layer Ficoll gradient where the 75% layer was collected and put in culture in complete tumor media (RPMI 1640, Gibco, 61871) containing 10% FBS, 1% HEPES (Corning, 25-060), 1% sodium pyruvate (Invitrogen/Life Technologies, 11360-070), 1% insulin/selenium/transferrin (Gibco, 51300), 0.2% MycoZap-PR (Lonza, VZA-2011). All tumor samples were HLA typed at the HLA-A locus in the MD Anderson HLA Typing Laboratory. […]

T2 cells = assay: Caspase3 based CTL killing assay, TIL2661 against peptide-pulsed T2 cells; settings: T2 pulsed with 10 μM peptide, anti-caspase3 staining, flow cytometry
Excerpt: T cells play a primary role in adaptive immunity against infections and tumorigenesis, and therapies based on manipulating T-cell activation have shown promise in cancer treatment. To determine the function of CCNI-ED specific T cells in mediating tumor cell killing, the HLA-A*02:01 expressing lymphoblast cell line T2, which is lacking expression of the transporter associated with antigen processing (TAP) and thus incapable of presenting endogenous peptides, were employed. The CCNI-WT or CCNI-ED peptide were pulsed onto T2 cells, co-cultured with TIL2661 in different ratios, and then measured T-cell mediated target cell death based on anti-caspase3 staining and subsequent flow cytometric quantification. […]
T cell-mediated cell killing was analyzed using a flow cytometry-based method by detecting T cell-induced caspase-3 cleavage in target cells. […] T cell-mediated caspase-3 cleavage was measured by intracellular staining with Cytofix/Cytoperm reagent (BD Biosciences, 554772) and PE conjugated anti-cleaved caspase-3 antibody (BD Bioscience, 550821) and the number of pre-apoptotic cells were determined by flow cytometry.

293-A2 cells = assay: IFNγ ELISPOT of Ted10 with peptide-pulsed or CCNI-transfected 293-A2 cells; settings: 293-A2 cells pulsed with peptide
Protocol: To investigate this relationship on cellular level, CCNI-ED10-specific effector T cells (Ted10) were generated from HLA-A*02:01-expressing normal peripheral blood mononuclear cells (PBMCs) using an established method.
IFNγ Enzyme-linked immunospot (ELISPOT) assay was performed to detect T-cell responses. MultiScreen 96 well filter plates (Millipore, MAHAS4510) were coated over night at 4° C. with 75 μL/well of […] anti-human IFNγ capture antibody (Mabtech AB, 3420-3-1000). TILs or CCNI-ED specific T cells (Ted10) were thawed and cultured with 1000U of human IL-2/mL overnight. On the next day, before performing ELISPOT assay, T cells were starved with IL-2 free medium for 6 hours. […] After 18 hours of cultivation at 37° C. and 5% CO2, the plates were incubated with 1 ng/mL of Biotinylated anti-human IFNγ monoclonal antibody (Mabtech, 3420-6-1000) for one hour, stained with ExtrAvidine®-Alkaline phosphatase (Sigma-Aldrich, E2636) and IFNγ positive spots were detected with BCIP/NBT Membrane Alkaline Phosphatase Substrate (Sigma, 11697471001). Plates were scanned and counted using the ImmunoSpot® ELISPOT analyzer (Shaker Heights, Ohio) to determine the number of spots/well. […]

Row | Sequence | IFNγ ELISPOT response of TIL to peptide (melanoma TILs; TIL2576, parallel assay with the same TILs) | IFNγ production by TILs (ELISPOT response to peptide) (melanoma TILs; triplicates) | number of HLA-A*02:01-expressing TILs that responded (TIL2678, TIL2661, TIL2559) (melanoma TILs; IFNγ ELISPOT, triplicates) | TIL2661 mediated killing of peptide-pulsed T2 cells (T2 cells) | IFNγ production by Ted10 (ELISPOT) (293-A2 cells)
1 | LLDGFLATV (listed as Homo sapiens) [CCNI-ED9, RNA editing-derived HLA peptide, editing site CCNI R75G] | weakly reacted |  |  |  | 
2 | SLLDGFLATV (listed as Homo sapiens) [CCNI-ED10, RNA editing-derived HLA peptide, editing site CCNI R75G] |  | strongly responded | 3 out of 15 | facilitated target killing | potently activated
3 | SLLDRFLATV (listed as Homo sapiens) [CCNI-WT10, non-edited wildtype counterpart of CCNI-ED10, reference compound] |  | none of the TILs responded |  | CCNI-ED10, rather than CCNI-WT10, to T2 cells facilitated target killing | 

Reference: patent US20210172961A1, “METHODS FOR IDENTIFYING RNA EDITING-DERIVED EPITOPES THAT ELICIT IMMUNE RESPONSES IN CANCER” (Board of Regents, The University of Texas System, priority 2018, published 2021)
